In patent publication US20210085244A1, “WRIST RIGIDITY ASSESSMENT DEVICE AND METHOD FOR IDENTIFYING A CLINICALLY EFFECTIVE DOSE” (INESC TEC- INSTITUTO DE ENGENHARIA DE SISTEMAS …, priority 2015, published 2021):

System: Parkinson's Disease (PD) patients
Experiment: Levodopa level medication test: UPDRS rigidity score and wrist rigidity index by wearable angular velocity sensor
Assay type: in vivo
Conditions: for UPDRS: motor classification for Rigidity & Rest Tremor (0 to 4); for Rigidity label (Avg): average, higher values = lower rigidity; for Rigidity label: higher index values correspond to lower perceived wrist rigidity
Excerpt: FIG. 6: angular velocity data of a wrist rigidity assessment recorded using a device according to an embodiment of the present disclosure for a first subject for a period of time (a) without levodopa and (b) with a clinically effective dosage regime of levodopa. Also pictured are values of a rigidity index (label) calculated according to the present disclosure. Higher index values correspond to lower perceived wrist rigidity. FIG. 7: angular velocity data of a wrist rigidity assessment recorded using a device according to an embodiment of the present disclosure for a second subject for a period of time (a) without levodopa and (b) with a clinically effective dosage regime of levodopa. Also pictured are values of a rigidity index (label) calculated according to the present disclosure. Higher index values correspond to lower perceived wrist rigidity. Levodopa is an amino acid precursor of dopamine with antiparkinsonian properties. Levodopa is a prodrug that is converted to dopamine by DOPA decarboxylase and can cross the blood-brain barrier. Two patients (person and person) were subjected to a Levodopa level medication test where an experienced neurologist evaluates the subjective Unified PD Rating Scale (UPDRS) motor semi-quantitative classification for Rigidity & Rest Tremor (0 to 4) for a baseline (no levodopa) and in steps of increasing levodopa dosages until a UPDRS of 0 is achieved. This is the dosage as prescribed to the patient. At this dosage, wrist rigidity was evaluated as presently disclosed. As described above, higher index values correspond to lower perceived wrist rigidities. See also FIG. 6-7. A threshold of a rigidity measure according to the present disclosure, for example of 70% or 80%, can thus be used to objectively identify a clinically effective dosage regime. Furthermore, a threshold of a rigidity measure according to the present disclosure can also be used to identify a clinically effective dosage regime which also minimizes the risk of side effects.

## N[C@@H](Cc1ccc(O)c(O)c1)C(=O)O [Levodopa]
Subject 1, with clinically effective dosage of levodopa, baseline without levodopa 3
  UPDRS: 0
Subject 1, with levodopa, baseline without levodopa 46.9
  Rigidity label (Avg): 74.3%
Subject 1, with levodopa, baseline without levodopa 40-50
  Rigidity label: 70-80%
Subject 2, with clinically effective dosage of levodopa, baseline without levodopa 2
  UPDRS: 0
Subject 2, with levodopa, baseline without levodopa 48.6
  Rigidity label (Avg): 84.9%
Subject 2, with levodopa, baseline without levodopa 50
  Rigidity label: 80-90%
